Assay results published in patent US8916702B2 (priority 2012, dated 2014).

These molecules were tested on HCV pseudoparticles (genotype 1a HCV E1 and E2 envelope, H77C isolate) (assay: microbe, parasite or virus in culture). Conditions: Hepatitis C virus, Huh-7, 48 h, HCV pseudoparticle infection of Huh7 cells, luciferase 2 days after infection; average of duplicates.
Type: cell-based
`O=C(NC[C@H](NC(=O)c1ccc(Nc2nc(NC3(c4ccc(Cl)cc4)CC3)nc(OCC(F)(F)F)n2)cc1)C(=O)O)C(=O)Nc1cc[nH]n1` [Compound 1353] showed an EC50 of 1.66 nM.

Same assay, conditions: Hepatitis C virus, Huh-7, 48 h, HCV pseudoparticles (genotype 1a, H77C) in Huh7 cells; average of duplicate; luciferase 2 days after infection
In the case of `O=C(Nc1cccc(F)c1)C(=O)N[C@H](CCNC(=O)c1ccc(Nc2nc(NC3(c4ccc(Cl)cc4)CC3)nc(OCC(F)(F)F)n2)cc1)C(=O)O` [Compound 3492, (R)-4-(4-((4-((1-(4-chlorophenyl)cyclopropyl)amino)-6-(2,2,2-trifluoroethoxy)-1,3,5-triazin-2-yl)amino)benzamido)-2-(2-((3-fluorophenyl)amino)-2-oxoacetamido)butanoic acid], the EC50 is reported as 0.33 nM.
With `Cc1ccc(NC(=O)C(=O)N(C)CCCNC(=O)c2ccc(Nc3nc(NC4(c5ccc(Cl)cc5)CC4)nc(OCC(F)(F)F)n3)cc2)cc1` [Compound 3445] the EC50 was 0.061 nM.

Same assay, conditions: Hepatitis C virus, Huh-7, 48 h, HCV pseudoparticles, Huh7 cells, luciferase 2 days after infection; average of duplicates
`CC(C)c1cccc(NC(=O)C(=O)NC[C@H](NC(=O)c2ccc(Nc3nc(NC4(c5ccc(Cl)cc5)CC4)nc(OCC(F)(F)F)n3)cc2)C(=O)O)c1` [Compound 3758] gave an EC50 of 0.54 nM.

Same assay, conditions: Hepatitis C virus, Huh-7, 48 h, read-out: Activity (EC50 class), HCV pseudoparticle infection of Huh7 cells, luciferase 2 days after infection; EC50 expressed as class A/B
Molecule `COC(=O)[C@H](CNC(=O)C(=O)NCC1CC[C@H]2C[C@@H]1C2(C)C)NC(=O)c1ccc(Nc2nc(NC3(c4ccc(Cl)cc4)CC3)nc(OCC(F)(F)F)n2)cc1` (some centres unmarked) [Compound 1453] has an EC50 of 0.01 to 10 nM.
In the case of `COC(=O)[C@H](CCNC(=O)C(=O)NCC1CC[C@H]2C[C@@H]1C2(C)C)NC(=O)c1ccc(Nc2nc(NC3(c4ccc(Cl)cc4)CC3)nc(OCC(F)(F)F)n2)cc1` (some centres unmarked) [Compound 1201], the EC50 is reported as 0.01 to 10 nM.
`COC(=O)[C@H](CNC(=O)C(=O)N[C@@H]1C[C@@H]2CC[C@H]1C2)NC(=O)c1ccc(Nc2nc(NC3(c4ccc(Cl)cc4)CC3)nc(OCC(F)(F)F)n2)cc1` [Compound 1050] gave an EC50 of 0.01 to 10 nM.
In the case of `O=C(NCC1CCCOC1)C(=O)NC[C@H](NC(=O)c1ccc(Nc2nc(NC3(c4ccc(Cl)cc4)CC3)nc(OCC(F)(F)F)n2)cc1)C(=O)O` (some centres unmarked) [Compound 1470], the EC50 is reported as 0.01 to 10 nM.
Work on `O=C(NC[C@H](NC(=O)c1ccc(Nc2nc(NC3(c4ccc(Cl)cc4)CC3)nc(OCC(F)(F)F)n2)cc1)C(=O)O)C(=O)Nc1cc[nH]n1` [Compound 1353] yielded an EC50 of 0.01 to 10 nM.
`COC(=O)[C@H](CCNC(=O)C(=O)NCCn1cncn1)NC(=O)c1ccc(Nc2nc(NC3(c4ccc(Cl)cc4)CC3)nc(OCC(F)(F)F)n2)cc1` [Compound 1321] gave an EC50 of 0.01 to 10 nM.
`CCCNC(=O)C(NC(=O)c1ccc(Nc2nc(NC3(c4ccc(Cl)cc4)CC3)nc(OCC(F)(F)F)n2)cc1)C1CCCN(C(=O)C(N)=O)C1` (centres unmarked) [Compound 1019, N-(1-(1-(2-amino-2-oxoacetyl)piperidin-3-yl)-2-oxo-2-(propylamino)ethyl)-4-(4-(1-(4-chlorophenyl)cyclopropylamino)-6-(2,2,2-trifluoroethoxy)-1,3,5-triazin-2-ylamino)benzamide] was tested, and the EC50 was 0.01 to 10 nM.
With `O=C(NCCc1ccccc1)C(=O)NCC[C@H](NC(=O)c1ccc(Nc2nc(NC3(c4ccc(Cl)cc4)CC3)nc(OCC(F)(F)F)n2)cc1)C(=O)O` [Compound 1328] the EC50 was 0.01 to 10 nM.
`COC(=O)[C@H](CCNC(=O)C(=O)Nc1cn[nH]c1)NC(=O)c1ccc(Nc2nc(NC3(c4ccc(Cl)cc4)CC3)nc(OCC(F)(F)F)n2)cc1` [Compound 1224] showed an EC50 of 0.01 to 10 nM.
Work on `COC(=O)[C@H](CCNC(=O)C(=O)NCc1ccccc1)NC(=O)c1ccc(Nc2nc(NC3(c4ccc(Cl)cc4)CC3)nc(OCC(F)(F)F)n2)cc1` [Compound 1142] yielded an EC50 of 0.01 to 10 nM.
`O=C(NCC[C@@H](NC(=O)c1ccc(Nc2nc(NC3(c4ccc(Cl)cc4)CC3)nc(OCC(F)(F)F)n2)cc1)C(=O)O)C(=O)Nc1ccc(-c2ccccc2)cc1` [Compound 1557] showed an EC50 of 0.01 to 10 nM.
With `COC(=O)[C@H](CNC(=O)C(=O)Nc1cn[nH]c1)NC(=O)c1ccc(Nc2nc(NC3(c4ccc(Cl)cc4)CC3)nc(OCC(F)(F)F)n2)cc1` [Compound 1246] the EC50 was 0.01 to 10 nM.
`O=C(NCc1cccnc1)C(=O)NC[C@@H](NC(=O)c1ccc(Nc2nc(NC3(c4ccc(Cl)cc4)CC3)nc(OCC(F)(F)F)n2)cc1)C(=O)O` [Compound 1043] was tested, and the EC50 was 0.01 to 10 nM.
`CC(C)(C)OC(=O)N1CCC(NC(=O)C(=O)NCC[C@H](NC(=O)c2ccc(Nc3nc(NC4(c5ccc(Cl)cc5)CC4)nc(OCC(F)(F)F)n3)cc2)C(=O)O)CC1` [Compound 1119] was tested, and the EC50 was 0.01 to 10 nM.
`CC(C)(CNC(=O)C(=O)Nc1ccc(-c2csnn2)cc1)CNC(=O)c1ccc(Nc2nc(NC3(c4ccc(Cl)cc4)CC3)nc(OCC(F)(F)F)n2)cc1` [Compound 1598] was tested, and the EC50 was 0.01 to 10 nM.

Same assay, conditions: Hepatitis C virus, Huh-7, 48 h, read-out: Activity (EC50 class), HCV pseudoparticles, Huh7 cells, luciferase 2 days after infection; average of duplicates
Molecule `Cc1ccc(NC(=O)C(=O)NCC(C)(O)CNC(=O)c2ccc(Nc3nc(NC4(c5ccc(Cl)cc5)CC4)nc(OCC(F)(F)F)n3)cc2)cc1` (centres unmarked) [Compound 3832] has an EC50 of 0.01 to 10 nM.
Molecule `COC(=O)[C@H](CNC(=O)C(=O)Nc1ccc(O)nc1)NC(=O)c1ccc(Nc2nc(NC3(c4ccc(Cl)cc4)CC3)nc(OCC(F)(F)F)n2)cc1` [Compound 3722] has an EC50 of 0.01 to 10 nM.
Molecule `CC(C)(C)c1ccc(Oc2ccc(NC(=O)C(=O)NC[C@H](NC(=O)c3ccc(Nc4nc(NC5(c6ccc(Cl)cc6)CC5)nc(OCC(F)(F)F)n4)cc3)C(=O)O)cn2)cc1` [Compound 3754] has an EC50 of 0.01 to 10 nM.
`CC(C)(CNC(=O)C(=O)Nc1nc2ccc(OC(F)(F)F)cc2s1)CNC(=O)c1ccc(Nc2nc(NC3(c4ccc(Cl)cc4)CC3)nc(OCC(F)(F)F)n2)cc1` [Compound 3823] gave an EC50 of 0.01 to 10 nM.
`CC(C)c1cccc(NC(=O)C(=O)NC[C@H](NC(=O)c2ccc(Nc3nc(NC4(c5ccc(Cl)cc5)CC4)nc(OCC(F)(F)F)n3)cc2)C(=O)O)c1` [Compound 3758] showed an EC50 of 0.01 to 10 nM.

Same assay, conditions: Hepatitis C virus, Huh-7, read-out: Activity (EC50 class), HCV pseudoparticles (genotype 1a, H77C) in Huh7 cells; EC50 expressed as class A/B
`COc1ccc(-c2ccccc2NC(=O)C(=O)NCC(C)(C)CNC(=O)c2ccc(Nc3nc(NC4(c5ccc(Cl)cc5)CC4)nc(OCC(F)(F)F)n3)cc2)cc1` [Compound 3065] was tested, and the EC50 was 0.01 to 10 nM.
For `CC(CNC(=O)C(=O)Nc1ccc(F)cc1)CNC(=O)c1ccc(Nc2nc(NC3(c4ccc(Cl)cc4)CC3)nc(OCC(F)(F)F)n2)cc1` (centres unmarked) [Compound 3335], the EC50 was 0.01 to 10 nM.
`CC(C)(CNC(=O)C(=O)Nc1ccc(C(F)(F)F)cc1F)CNC(=O)c1ccc(Nc2nc(NC3(c4ccc(Cl)cc4)CC3)nc(OCC(F)(F)F)n2)cc1` [Compound 3409] was tested, and the EC50 was 0.01 to 10 nM.
For `COC(=O)[C@H](CCNC(=O)C(=O)Nc1ccc(OC(F)F)cc1)NC(=O)c1ccc(Nc2nc(NC3(c4ccc(Cl)cc4)CC3)nc(OCC(F)(F)F)n2)cc1` [Compound 3332], the EC50 was 0.01 to 10 nM.
`O=C(Nc1cccc(F)c1)C(=O)N[C@H](CCNC(=O)c1ccc(Nc2nc(NC3(c4ccc(Cl)cc4)CC3)nc(OCC(F)(F)F)n2)cc1)C(=O)O` [Compound 3492, (R)-4-(4-((4-((1-(4-chlorophenyl)cyclopropyl)amino)-6-(2,2,2-trifluoroethoxy)-1,3,5-triazin-2-yl)amino)benzamido)-2-(2-((3-fluorophenyl)amino)-2-oxoacetamido)butanoic acid] was tested, and the EC50 was 0.01 to 10 nM.
With `CCOc1ccc(NC(=O)C(=O)NCC[C@H](NC(=O)c2ccc(Nc3nc(NC4(c5ccc(Cl)cc5)CC4)nc(OCC(F)(F)F)n3)cc2)C(=O)O)cc1` [Compound 3548] the EC50 was 0.01 to 10 nM.
With `Cc1ccc(NC(=O)C(=O)N(C)CCCNC(=O)c2ccc(Nc3nc(NC4(c5ccc(Cl)cc5)CC4)nc(OCC(F)(F)F)n3)cc2)cc1` [Compound 3445] the EC50 was 0.01 to 10 nM.
Work on `COC(=O)[C@H](CCNC(=O)C(=O)NC1CCC(S(C)(=O)=O)CC1)NC(=O)c1ccc(Nc2nc(NC3(c4ccc(Cl)cc4)CC3)nc(OCC(F)(F)F)n2)cc1` (some centres unmarked) [Compound 3119] yielded an EC50 of 0.01 to 10 nM.
With `CC(C)(CNC(=O)c1ccc(Nc2nc(NC3(c4ccc(Cl)cc4)CC3)nc(OCC(F)(F)F)n2)cc1)NC(=O)C(=O)NCc1ccc(F)cc1` [Compound 3419] the EC50 was 0.01 to 10 nM.
With `COC(=O)[C@H](CNC(=O)C(=O)Nc1ccc(Oc2ccc(F)cc2)cc1)NC(=O)c1ccc(Nc2nc(NC3(c4ccc(Cl)cc4)CC3)nc(OCC(F)(F)F)n2)cc1` [Compound 3184] the EC50 was 0.01 to 10 nM.
`O=C(NCC[C@H](NC(=O)c1ccc(Nc2nc(NC3(c4ccc(Cl)cc4)CC3)nc(OCC(F)(F)F)n2)cc1)C(=O)O)C(=O)Nc1ccc(-n2cccn2)cc1` [Compound 3237] gave an EC50 of 0.01 to 10 nM.
For `COC(=O)[C@H](CCNC(=O)C(=O)Nc1ccc(OCCc2ccccn2)cc1)NC(=O)c1ccc(Nc2nc(NC3(c4ccc(Cl)cc4)CC3)nc(OCC(F)(F)F)n2)cc1` [Compound 3315], the EC50 was 0.01 to 10 nM.
For `CC(CNC(=O)C(=O)N1CCCCC1)CNC(=O)c1ccc(Nc2nc(NC3(c4ccc(Cl)cc4)CC3)nc(OCC(F)(F)F)n2)cc1` (centres unmarked) [Compound 3475], the EC50 was 0.01 to 10 nM.
`COC(=O)/C(CCNC(=O)C(=O)Nc1ccc(OCCN2CCCCC2)nc1)=N\C(=O)c1ccc(Nc2nc(NC3(c4ccc(Cl)cc4)CC3)nc(OCC(F)(F)F)n2)cc1` [Compound 3598] gave an EC50 of 0.01 to 10 nM.
